Counter-ions that a name gives are not always drawn.
Biological target: T1, PDE10A (Homo sapiens, UniProt Q9Y233)
T1 construct: made in house; host or cells: Sf9 insect cells (baculovirus, pVL1393)
Assay: Activity of inhibiting PDE10A activity ([3H]cAMP decomposition inhibiting test)
Assay type: biochemical
Conditions: substrate [3H]cAMP 0.2 μmol/L
Method: Activity of Inhibiting PDE10A Activity (^3H]cAMP Decomposition Inhibiting Test)
PCR was performed using DNAs having base sequences described in SEQ ID NO. 1 and SEQ ID NO. 2 as primers and human kidney cDNA as a template to prepare a plasmid containing amplified fragments. The plasmid was cleaved with restriction endonucleases Pst I and Xba I to obtain a Pst I-Xba I fragment of 0.7 kb.
Meanwhile, Est clone (Cosmo Bio, Tokyo) of GenBank, ACCESSION WO 4835 was cleaved with restriction endonucleases Kpn I and Pst I to obtain a Kpn I-Pst I fragment of 1.5 kb.
The resulting Pst I-Xba I fragment of 0.7 kb and Kpn I-Pst I fragment of 1.5 kb were subcloned in a Kpn I-Xba I site of pBluescript II KS(−) (STRATAGENE, La Jolla, Calif., USA),to construct a plasmid having a cDNA fragment completely including a catalyst region of PDE10A. Subsequently, the plasmid was cleaved with restriction endonucleases Kpn I and Not I to obtain a Kpn I-Not I fragment of 2.2 kb.
The resulting Kpn I-Not I fragment of 2.2 kb and a linker having a BamH I-Kpn I cleavage surface prepared by synthetic DNA having base sequences described in SEQ ID NOS. 3 and 4 were subcloned in a BamH I-Not I site of pVL1393 (PharMingen, San Diego, Calif., USA) to obtain a plasmid for preparation of Baculovirus. The plasmid contains a DNA encoding a peptide in which methionine, FLAG tag and a peptide having a 64th to 779th amino acid sequence of PDE10A [GenBank, ACCESSION NP 006652: Gene, vol. 234, p. 109 (1999), J. Biol. Chem., vol. 274, p. 18438 (1999)] are bound in the order.
The above gene recombinational manipulation was performed according to the method described in Molecular Cloning, 2nd edition, Cold Spring Harbor Laboratory Press, New York (1989).
The expression of PDE10A was conducted according to the Baculovirus expression vector system manual (PharMingen) using insect cells. As insect cells, Sf9 cells (Asahi Technoglass, Tokyo) were used. Sf9 cells were infected with a supernatant (co-transfection sup) containing PDE10A expression virus prepared according to the manual, and cultured at 27° C. for 4 days. The cells were recovered, washed with a phosphate-buffered saline (PBS), and then suspended in an extraction solution [20 mmol/L Tris-acetate (pH 7.5), 2 mmol/L MgCl2, 1 mmol/L dithiothreitol, 1 mmol/L ethylenediaminetetraacetic acid (EDTA), 0.25 mol/L sucrose, 250 unit/mL aprotinin, 40 μg/mL phenylmethylsulfonyl fluoride, and 1 μg/mL pepstatin A]. The cells were disrupted in ice with the maximum output under conditions of 5 seconds and five times using an ultrasonic disruption machine (TOMY model UR-200R, TOMY, Tokyo). A soluble fraction was obtained by centrifugation under 10,000 rpm of the fraction at 4° C. for 30 minutes, and the resulting soluble fraction was used for measuring the PDE activity.
The PDE activity was measured according to the method described in Methods Enzymol., vol. 159, p. 457 (1988).
Using [^3H]cAMP as a substrate, an enzyme reaction was conducted in a reaction solution containing 300 μL of 50 mmol/L N,N-bis (2-hydroxyethyl)-2-aminoethanesulfonic acid (pH 7.2), 1 mmol/L MgCl2 and 0.1 mmol/L ethylene glycol-bis (β-aminoethyl ether)-N,N,N′,N′-tetraacetic acid: EGTA). The concentration of the substrate was 0.2 μmol/L. To 95 μL of an enzyme dilute solution were added 5 μL of a test compound (DMSO solution) and 200 μL of a substrate solution. The mixture was incubated at 30° C. for 20 minutes, and then HCl was added to stop the reaction. The reaction product (5′-AMP) was converted to adenosine using 5′-nucleotidase, and separated the unreacted product from the reactant by DEAE-Sephadex A-25 column (Amersham Pharmacia Biotech, Uppsala, Sweden). The elute was moved to scintillation vials, 6 mL of Ultima Gold (Packard Instrument, Meriden, Conn., USA) was added, and the radioactivity was measured for 2 minutes using a liquid scintillation counter (Beckman LS6500, Beckman, Tokyo),. […]

T1 sequence (Q9Y233 340-1055): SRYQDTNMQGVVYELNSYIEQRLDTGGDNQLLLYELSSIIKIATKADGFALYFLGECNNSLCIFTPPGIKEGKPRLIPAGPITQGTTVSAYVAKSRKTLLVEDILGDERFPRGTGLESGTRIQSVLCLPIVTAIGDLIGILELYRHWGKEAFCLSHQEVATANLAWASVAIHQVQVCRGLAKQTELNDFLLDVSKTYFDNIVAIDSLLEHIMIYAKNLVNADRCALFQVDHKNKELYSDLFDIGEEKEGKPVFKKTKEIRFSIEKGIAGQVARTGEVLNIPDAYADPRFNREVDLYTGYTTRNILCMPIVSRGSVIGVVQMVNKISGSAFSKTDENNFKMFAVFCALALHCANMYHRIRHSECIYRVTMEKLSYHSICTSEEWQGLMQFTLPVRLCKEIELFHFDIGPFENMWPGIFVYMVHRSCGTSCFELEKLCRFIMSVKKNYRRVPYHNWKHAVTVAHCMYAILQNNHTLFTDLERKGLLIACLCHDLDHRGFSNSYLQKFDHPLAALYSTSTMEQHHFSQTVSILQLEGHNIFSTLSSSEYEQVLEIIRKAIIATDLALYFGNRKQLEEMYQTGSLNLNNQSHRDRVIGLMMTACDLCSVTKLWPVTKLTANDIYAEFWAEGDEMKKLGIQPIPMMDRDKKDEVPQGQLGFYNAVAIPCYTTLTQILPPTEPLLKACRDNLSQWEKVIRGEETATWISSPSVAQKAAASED

inhibition at 1 µM (Test compound concentration 1 μmol/L, read-out: [3H] cAMP decomposition inhibition rate (%)): 96%
IC50 (read-out: IC50 (concentration at which to inhibit [3H]cAMP decomposition by 50%)): 0.068 µM
Structure (SMILES): Cc1c(-c2ccc(-c3ccccc3CN3CCOCC3)cc2)nc2ccc(F)cc2c1CO [Compound 12, 6-Fluoro-4-hydroxymethyl-3-methyl-2-(2′-morpholinomethylbiphenyl-4-yl)quinoline dihydrochloride]
